Source: PMC10818259, “Antioxidant and Inhibitory Activities of Filipendula glaberrima Leaf Constituents against HMG-CoA Reductase and Macrophage Foam Cell Formation” (Molecules, 2024)

Legend:
[1] = Superoxide anion radical scavenging assay (xanthine/xanthine oxidase, NBT); format: biochemical; conditions: isolates and standards; mean ± SD, n = 3; read-out: Antioxidant Activity (IC50) Superoxide Anion Radical
Text: Superoxide anion radical scavenging assay.

HMG-CoA reductase (HMGR) = molecular target: T1, HMG-CoA reductase (HMGR) (Homo sapiens, UniProt P04035); test: HMG-CoA reductase (HMGR) inhibition assay, NADPH oxidation at 340 nm; format: biochemical
T1 sequence (P04035 426-888 limits assumed): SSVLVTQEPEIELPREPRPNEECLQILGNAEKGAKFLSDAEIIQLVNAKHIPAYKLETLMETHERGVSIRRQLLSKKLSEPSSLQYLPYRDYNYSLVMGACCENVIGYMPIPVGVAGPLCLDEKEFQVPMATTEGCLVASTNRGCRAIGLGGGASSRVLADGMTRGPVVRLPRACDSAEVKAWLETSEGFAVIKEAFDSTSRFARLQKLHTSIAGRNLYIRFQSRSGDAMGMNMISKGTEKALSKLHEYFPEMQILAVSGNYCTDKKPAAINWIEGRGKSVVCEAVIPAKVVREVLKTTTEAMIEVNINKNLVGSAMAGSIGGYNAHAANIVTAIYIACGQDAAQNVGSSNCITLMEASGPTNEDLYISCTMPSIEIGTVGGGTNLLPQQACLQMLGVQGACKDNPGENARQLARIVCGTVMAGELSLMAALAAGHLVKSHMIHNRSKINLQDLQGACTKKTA
Protocol: The HMGR activity assay was optimized using a 96-well microplate reader to measure nicotinamide adenine dinucleotide phosphate (NADPH) oxidation during enzyme turnover. Each well was loaded with a mixture comprising 89 μL of 50 mM sodium phosphate buffer (pH 6.8), 0.8 mM NADPH, and 2 μg of the enzyme (2–8 units/mg). To initiate the reaction, 1 μL of the test sample and 10 μL of 0.8 mM HMG-CoA were introduced to the well. […] The activity of HMGR was assessed by monitoring the reduction in NADPH absorbance at 340 nm for a duration of 900 s at 37 °C.

[2] = DPPH radical scavenging assay; conditions: read-out: Antioxidant Activity (IC50) DPPH, isolates and standards, mean ± SD, n = 3
Protocol: As positive controls, ascorbic acid, quercetin, resveratrol, and Trolox were employed. Triplicate measurements were performed for each sample, and the mean values were determined.
DPPH radical scavenging assay.
The extracts and isolates were dissolved in dimethyl sulfoxide (DMSO) at concentrations
ranging from 0.1 to 10 mg/mL and 0.1 to 10 mM, respectively. Subsequently, they were
combined with an ethanol solution of DPPH (100 μM). The DPPH solution (190 μL per well)
and the samples (10 μL per well) were incubated in a 96-well microplate at 37 °C for 30 minutes
under dark conditions. The absorbance at 515 nm was quantified using a microplate reader, and
the percentage inhibition (%) of each sample was calculated by comparing it with the control
group treated with DMSO. Linear regression analysis was employed to estimate the IC50 values,
which indicated the concentration of test samples required to inhibit 50% of the free radicals.

[3] = system: lipid peroxidation in liver homogenate; test: Inhibitory effect on lipid peroxidation (LPO) in liver homogenate, TBARS; format: biochemical, Sprague Dawley rats; conditions: isolates and standards; rat liver homogenate; mean ± SD, n = 3; read-out: Antioxidant Activity (IC50) LPO
Text: Assay for inhibitory effect of lipid peroxidation. Male Sprague Dawley rats were used in the […]
Technology (approval number: […]-2018-081). Experimental animals were […]
anesthetized with isoflurane and dissected. A 0.15 M ice-cold KCl solution was perfused through the liver portal vein to remove blood from the liver and extract the liver. The liver was homogenized in KCl solution at 10 times the liver’s weight , and the protein concentration was quantified by the Bradford protein method using bovine serum albumin as a standard. A lipid peroxidation test was performed using a slightly modified version of the method described.
Reaction mixtures consisted of 300 μL of liver ho mogenate (11 mg protein/mL) , 300 μL of 50 mM Tris -HCl buffer (pH 7.5) containing 10 μM FeSO 4, and 0.4 mM ascorbic acid. Test samples (10 μL) or DMSO blanks were added to the reaction mixture and incubated at 37 °C for 30 min. After incubation, lipid peroxidation was measured by forming thiobarbituric acid reactive substance s. The mixture was subjected to a reaction at 90 °C for 30 min, followed by cooling and subsequent centrifugation (5,000 × g) for 10 min. The absorbance of the resulting supernatant was d etermined at 535 nm, and the percentage of lipid peroxidation inhibition by the sample was computed. DMSO was utilized as a control instead of the test drug, and the […]

[4] = system: THP-1 macrophage foam cells; test: ox-LDL-induced macrophage foam cell formation, Oil Red O staining; format: cell-based; conditions: Homo sapiens, 50 μg/mL ox-LDL, 16 h, positive control, read-out: Inhibitory effect on foam cell formation
Protocol: This approach aimed to examine the impact of these substances on lipid accumulation and the formation of foam cells. First, we observed the effects of different concentrations (20, 40, and 60 μg/mL) of the solvent extracts on the THP-1 macrophage activity. […] As a result, we selected and optimized the concentration of 50 μg/mL for the solvent extract to be used in the subsequent experiments. […] Following the extraction of the intracellular dye using isopropanol, a quantitative assessment of the intracellular lipid content was conducted.
THP-1 cells (ATCC, TIB-202, Manassas, VA, USA) were obtained and maintained in RPMI-1640 medium (Cytiva, UT, USA), supplemented with 10% fetal bovine serum (FBS; Hyclone, Cytiva, Logan, UT, USA), penicillin (100 U/mL), streptomycin (100 μg/mL), and 2-mercaptoethanol (Sigma-Aldrich, Saint Louis, MO, USA) at a final concentration of 0.05 mM. The cells were cultured at 37 °C in a 5% CO2 atmosphere with humidity. The THP-1 cells in the suspension were treated with 50 nM phorbol-12-myristate-13-acetate (Sigma-Aldrich, USA) for 48 h. […]
THP-1 cells were seeded in 24-well plates at a density of 5 × 10^5 cells/mL and pretreated as described above. […] The absorbance at 450 nm was measured using a multi-plate reader (Synergy Neo, BioTek Instruments, Inc., Winooski, VT, USA) and statistically processed.

Structure (SMILES) | IC50 [1] [µM] | IC50 (HMG-CoA reductase (HMGR)) [µM] | IC50 [2] [µM] | IC50 [3] [µM] | HMGR inhibition, result in words (HMG-CoA reductase (HMGR)) | IC50 ([2]; listed as quercetin) [µM] | inhibition at 5 µM [4] [%]
O=C(OC1C(O)OC2COC(=O)c3cc(Oc4c(C(=O)O)cc(O)c(O)c4O)c(O)c(O)c3-c3c(cc(O)c(O)c3O)C(=O)OC2C1OC(=O)c1cc(O)c(O)c(O)c1)c1cc(O)c(O)c(O)c1 (stereo not shown) [Compound 2, rugosin B] | 5.53 ± 0.21 | 17.7 ± 0.04 | 3 ± 0.08 | 6.02 ± 0.14 | – | – | –
O=C(O)[C@H]1O[C@@H](Oc2c(-c3ccc(O)c(O)c3)oc3cc(O)cc(O)c3c2=O)[C@H](O)[C@@H](O)[C@@H]1O [Compound 10, quercetin 3-glucuronic acid] | 21.5 ± 2.03 | > 50 | 15.7 ± 0.15 | 34.1 ± 2.98 | – | – | –
O=C(O)[C@H]1O[C@@H](Oc2c(O)cc(O)c3c(=O)c(O)c(-c4ccc(O)cc4)oc23)[C@H](O)[C@@H](O)[C@@H]1O [Compound 11, kaempferol 8-O-glucuronic acid] | 17.7 ± 0.3 | > 50 | 23 ± 0.45 | > 50 | – | – | –
CC[C@H](C)C(=O)O[C@H]1C[C@H](O)C=C2C=C[C@H](C)[C@H](CC[C@@H](O)C[C@@H](O)CC(=O)O)[C@H]21 [Pravastatin] | – | – | – | – | – | – | 77
O=c1c(O)c(-c2ccc(O)c(O)c2)oc2cc(O)cc(O)c12 [Quercetin, reference compound] | 21.3 ± 0.34 | – | 17.3 ± 1.09 | 7.45 ± 1.33 | – | 42.1 | –
Oc1ccc(/C=C/c2cc(O)cc(O)c2)cc1 [Resveratrol, reference compound] | > 50 | – | 42.1 ± 1.91 | 47.6 ± 6.35 | – | – | –
Cc1c(C)c2c(c(C)c1O)CCC(C)(C(=O)O)O2 (stereo not shown) [Trolox, reference compound] | > 50 | – | 31.3 ± 1.27 | 33.2 ± 3.6 | – | – | –
O=C1O[C@H]([C@@H](O)CO)C(O)=C1O [Vitamin C, ascorbic acid, reference compound] | > 50 | – | 31.7 ± 0.21 | – | – | – | –

Further lines, with some results ahead:

IC50 [1] [µM] | IC50 (HMG-CoA reductase (HMGR)) [µM] | IC50 [2] [µM] | IC50 [3] [µM] | HMGR inhibition, result in words (HMG-CoA reductase (HMGR)) | IC50 ([2]; listed as quercetin) [µM] | Structure (SMILES) | inhibition at 5 µM [4] [%]
4.29 ± 0.23 | 1.46 ± 0.22 | 3.62 ± 0.57 | 3.54 ± 0.29 | – | – | COC(=O)c1cc(O)c(O)c(O)c1Oc1cc2c(c(O)c1O)-c1c(cc(O)c(O)c1O)C(=O)OC1C(COC2=O)OC(O)C(OC(=O)c2cc(O)c(O)c(O)c2)C1OC(=O)c1cc(O)c(O)c(O)c1 (stereo not shown) [Compound 1, Rugosin B methyl ester] | –
4.25 ± 0.11 | 8.4 ± 0.84 | 4.27 ± 0.45 | 3.83 ± 0.52 | – | – | COC(=O)c1cc(O)c(O)c(O)c1Oc1cc2c(c(O)c1O)-c1c(cc(O)c(O)c1O)C(=O)O[C@H]1[C@H](OC(=O)c3cc(O)c(O)c(O)c3)[C@@H](OC(=O)c3cc(O)c(O)c(O)c3)[C@H](OC(=O)c3cc(O)c(O)c(O)c3)O[C@@H]1COC2=O [Compound 3, rugosin A methyl ester] | –
3.21 ± 0.05 | 12.2 ± 0.5 | 3.19 ± 0.13 | 3.75 ± 0.52 | – | – | O=C(O[C@@H]1O[C@@H]2COC(=O)c3cc(Oc4c(C(=O)O)cc(O)c(O)c4O)c(O)c(O)c3-c3c(cc(O)c(O)c3O)C(=O)O[C@H]2[C@H](OC(=O)c2cc(O)c(O)c(O)c2)[C@H]1OC(=O)c1cc(O)c(O)c(O)c1)c1cc(O)c(O)c(O)c1 [Compound 4, rugosin A] | –
4.75 ± 0.14 | 26.7 ± 0.9 | 4.34 ± 0.17 | 3.61 ± 0.34 | – | – | O=C(O[C@@H]1O[C@@H]2COC(=O)c3cc(O)c(O)c(O)c3-c3c(cc(O)c(O)c3O)C(=O)O[C@H]2[C@H](OC(=O)c2cc(O)c(O)c(O)c2)[C@H]1OC(=O)c1cc(O)c(O)c(O)c1)c1cc(O)c(O)c(O)c1 [Compound 5, eugeniin] | –
4.1 ± 0.53 | > 50 | 4.7 ± 0.14 | 3.93 ± 0.53 | – | – | O=C(OC1C(O)OC2COC(=O)c3cc(O)c(O)c(O)c3-c3c(cc(O)c(O)c3O)C(=O)OC2C1OC(=O)c1cc(O)c(O)c(O)c1)c1cc(O)c(O)c(O)c1 (stereo not shown) [Compound 6, tellimagrandin I] | –
4.47 ± 0.07 | 4.98 ± 0.18 | 3.81 ± 0.19 | 3.87 ± 0.61 | – | – | O=C(OC[C@H]1O[C@@H](OC(=O)c2cc(O)c(O)c(O)c2)[C@H](OC(=O)c2cc(O)c(O)c(O)c2)[C@@H](OC(=O)c2cc(O)c(O)c(O)c2)[C@@H]1OC(=O)c1cc(O)c(O)c(O)c1)c1cc(O)c(O)c(O)c1 [Compound 7, 1,2,3,4,6-penta-O-galloyl-β-D-glucose] | –
3.6 ± 0.23 | 13.8 ± 1.53 | 20.9 ± 0.98 | 3.54 ± 0.15 | – | – | O=C(OC[C@H]1OC(O)[C@H](OC(=O)c2cc(O)c(O)c(O)c2)[C@@H](OC(=O)c2cc(O)c(O)c(O)c2)[C@@H]1OC(=O)c1cc(O)c(O)c(O)c1)c1cc(O)c(O)c(O)c1 (stereo partly drawn) [Compound 8, 2,3,4,6-tetra-O-galloyl-D-glucose] | –
4.64 ± 0.45 | 41.5 ± 3.9 | 3.94 ± 0.25 | 5.88 ± 0.13 | weak effect | – | O=C(OC[C@H]1O[C@@H](OC(=O)c2cc(O)c(O)c(O)c2)[C@H](OC(=O)c2cc(O)c(O)c(O)c2)[C@@H](OC(=O)c2cc(O)c(O)c(O)c2)[C@@H]1O)c1cc(O)c(O)c(O)c1 [Compound 9, 1,2,3,6-tetra-O-galloyl-β-D-glucose] | –
